Results on eight compounds are retold here after paper PMC5580309, “Molecular-scale features that govern the effects of O-glycosylation on a carbohydrate-binding module” (Chemical Science, 2015).

Bridge positions count the residues as written; N and C are the ends. Peptide text beside a SMILES is read from it. * marks the point of attachment. X2 = OC[C@H]1O[C@H](O[C@H]2[C@@H](O)[C@H](O)[C@@H](CO)O[C@@H]2*)[C@@H](O)[C@@H](O)[C@@H]1O; αMan = OC[C@H]1O[C@H](*)[C@@H](O)[C@@H](O)[C@@H]1O

This series deals with T1, thermolysin (Bacillus thermoproteolyticus, UniProt P00800).
T1 sequence (P00800 233-548): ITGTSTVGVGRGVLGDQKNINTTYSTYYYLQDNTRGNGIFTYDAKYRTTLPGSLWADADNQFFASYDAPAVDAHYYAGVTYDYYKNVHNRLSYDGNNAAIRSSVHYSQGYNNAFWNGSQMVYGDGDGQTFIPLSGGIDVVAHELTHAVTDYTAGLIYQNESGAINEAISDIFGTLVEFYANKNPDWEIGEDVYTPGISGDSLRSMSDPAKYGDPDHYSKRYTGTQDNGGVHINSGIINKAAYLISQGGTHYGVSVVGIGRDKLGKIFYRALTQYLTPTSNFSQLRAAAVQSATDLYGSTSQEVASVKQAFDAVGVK
As to the kind of experiment: Proteolytic stability: half-life to thermolysin degradation. It counts as in vitro ADME. The conditions noted are these: for half-life: thermolysin (isolated protease), thermolysin degradation, mean of three trials ± SD, procedures as described previously (ESI ref 18); for Change in Half-Life to Thermolysin Degradation: glyco-variant minus its corresponding unglycosylated CBM (e.g. 2-1), *** not used in the correlation plot. The procedure:
All error bars reported are standard deviations of data achieved from three separate trials.
cellulose that were determined in accordance with our procedures as described previously 18.
The results are presented as mean of three trials ± SD. *Denotes an averaged value of four trials

Regarding `CC[C@H](C)[C@@H]1NC(=O)CNC(=O)CNC(=O)[C@@H](NC(=O)[C@H](CCC(N)=O)NC(=O)CNC(=O)[C@H](Cc2ccc(O)cc2)NC(=O)[C@H](Cc2c[nH]cn2)NC(=O)[C@H](CO)NC(=O)[C@H](CCC(N)=O)NC(=O)[C@@H](N)[C@@H](C)O)CSSC[C@@H]2NC(=O)[C@H]([C@@H](C)O)NC(=O)[C@H]([C@@H](C)O)NC(=O)CNC(=O)[C@H](CO)NC(=O)[C@H](C)NC(=O)[C@H](CSSC[C@@H](C(=O)N[C@@H](CC(C)C)C(=O)O)NC(=O)[C@H](CCC(N)=O)NC(=O)[C@H](CO)NC(=O)[C@H](Cc3ccc(O)cc3)NC(=O)[C@H](Cc3ccc(O)cc3)NC(=O)[C@@H]3CCCN3C(=O)[C@H](CC(N)=O)NC(=O)[C@H](CC(C)C)NC(=O)[C@H](C(C)C)NC(=O)[C@H](CCC(N)=O)NC2=O)NC(=O)[C@H](C(C)C)NC(=O)[C@H]([C@@H](C)O)NC(=O)[C@@H]2CCCN2C(=O)CNC(=O)[C@H](CO)NC(=O)[C@H](Cc2ccc(O)cc2)NC(=O)CNC1=O` [CBM variant 1] (H-TQSHYGQCGGIGYSGPTVCASGTTCQVLNPYYSQCL-OH; disulfide 8-25, 19-35), the half-life was 13.8 ± 1.2 min. For `CC[C@H](C)[C@@H]1NC(=O)CNC(=O)CNC(=O)[C@@H](NC(=O)[C@H](CCC(N)=O)NC(=O)CNC(=O)[C@H](Cc2ccc(O)cc2)NC(=O)[C@H](Cc2c[nH]cn2)NC(=O)[C@H](CO[C@H]2O[C@H](CO)[C@@H](O)[C@H](O)[C@@H]2O)NC(=O)[C@H](CCC(N)=O)NC(=O)[C@@H](N)[C@@H](C)O)CSSC[C@@H]2NC(=O)[C@H]([C@@H](C)O)NC(=O)[C@H]([C@@H](C)O)NC(=O)CNC(=O)[C@H](CO)NC(=O)[C@H](C)NC(=O)[C@H](CSSC[C@@H](C(=O)N[C@@H](CC(C)C)C(=O)O)NC(=O)[C@H](CCC(N)=O)NC(=O)[C@H](CO)NC(=O)[C@H](Cc3ccc(O)cc3)NC(=O)[C@H](Cc3ccc(O)cc3)NC(=O)[C@@H]3CCCN3C(=O)[C@H](CC(N)=O)NC(=O)[C@H](CC(C)C)NC(=O)[C@H](C(C)C)NC(=O)[C@H](CCC(N)=O)NC2=O)NC(=O)[C@H](C(C)C)NC(=O)[C@H]([C@@H](C)O)NC(=O)[C@@H]2CCCN2C(=O)CNC(=O)[C@H](CO)NC(=O)[C@H](Cc2ccc(O)cc2)NC(=O)CNC1=O` [CBM variant 2] (H-TQS(αMan)HYGQCGGIGYSGPTVCASGTTCQVLNPYYSQCL-OH; disulfide 8-25, 19-35), the “Change in Half-Life to Thermolysin Degradation” value (“Change in Half-Life” below) was 51.6 min and the half-life is 65.4 ± 0.6 min. Taken in the same sequence, the figures for `CC[C@H](C)[C@@H]1NC(=O)CNC(=O)CNC(=O)[C@@H](NC(=O)[C@H](CCC(N)=O)NC(=O)CNC(=O)[C@H](Cc2ccc(O)cc2)NC(=O)[C@H](Cc2c[nH]cn2)NC(=O)[C@H](CO[C@H]2O[C@H](CO)[C@@H](O)[C@H](O)[C@@H]2O[C@H]2O[C@H](CO)[C@@H](O)[C@H](O)[C@@H]2O)NC(=O)[C@H](CCC(N)=O)NC(=O)[C@@H](N)[C@@H](C)O)CSSC[C@@H]2NC(=O)[C@H]([C@@H](C)O)NC(=O)[C@H]([C@@H](C)O)NC(=O)CNC(=O)[C@H](CO)NC(=O)[C@H](C)NC(=O)[C@H](CSSC[C@@H](C(=O)N[C@@H](CC(C)C)C(=O)O)NC(=O)[C@H](CCC(N)=O)NC(=O)[C@H](CO)NC(=O)[C@H](Cc3ccc(O)cc3)NC(=O)[C@H](Cc3ccc(O)cc3)NC(=O)[C@@H]3CCCN3C(=O)[C@H](CC(N)=O)NC(=O)[C@H](CC(C)C)NC(=O)[C@H](C(C)C)NC(=O)[C@H](CCC(N)=O)NC2=O)NC(=O)[C@H](C(C)C)NC(=O)[C@H]([C@@H](C)O)NC(=O)[C@@H]2CCCN2C(=O)CNC(=O)[C@H](CO)NC(=O)[C@H](Cc2ccc(O)cc2)NC(=O)CNC1=O` [CBM variant 3] (H-TQS(X2)HYGQCGGIGYSGPTVCASGTTCQVLNPYYSQCL-OH; disulfide 8-25, 19-35) were 114 min and 128 ± 3.6 min. `CC[C@H](C)[C@@H]1NC(=O)CNC(=O)CNC(=O)[C@@H](NC(=O)[C@H](CCC(N)=O)NC(=O)CNC(=O)[C@H](Cc2ccc(O)cc2)NC(=O)[C@H](Cc2c[nH]cn2)NC(=O)[C@H](CO)NC(=O)[C@H](CCC(N)=O)NC(=O)[C@H](C)N)CSSC[C@@H]2NC(=O)[C@H]([C@@H](C)O)NC(=O)[C@H]([C@@H](C)O)NC(=O)CNC(=O)[C@H](CO)NC(=O)[C@H](C)NC(=O)[C@H](CSSC[C@@H](C(=O)N[C@@H](CC(C)C)C(=O)O)NC(=O)[C@H](CCC(N)=O)NC(=O)[C@H](CO)NC(=O)[C@H](Cc3ccc(O)cc3)NC(=O)[C@H](Cc3ccc(O)cc3)NC(=O)[C@@H]3CCCN3C(=O)[C@H](CC(N)=O)NC(=O)[C@H](CC(C)C)NC(=O)[C@H](C(C)C)NC(=O)[C@H](CCC(N)=O)NC2=O)NC(=O)[C@H](C(C)C)NC(=O)[C@H]([C@@H](C)O)NC(=O)[C@@H]2CCCN2C(=O)CNC(=O)[C@H](CO)NC(=O)[C@H](Cc2ccc(O)cc2)NC(=O)CNC1=O` [CBM variant 4] (H-AQSHYGQCGGIGYSGPTVCASGTTCQVLNPYYSQCL-OH; disulfide 8-25, 19-35) had a half-life of 9.6 ± 1.2 min. In the case of `CC[C@H](C)[C@@H]1NC(=O)CNC(=O)CNC(=O)[C@@H](NC(=O)[C@H](CCC(N)=O)NC(=O)CNC(=O)[C@H](Cc2ccc(O)cc2)NC(=O)[C@H](Cc2c[nH]cn2)NC(=O)[C@H](CO[C@H]2O[C@H](CO)[C@@H](O)[C@H](O)[C@@H]2O)NC(=O)[C@H](CCC(N)=O)NC(=O)[C@H](C)N)CSSC[C@@H]2NC(=O)[C@H]([C@@H](C)O)NC(=O)[C@H]([C@@H](C)O)NC(=O)CNC(=O)[C@H](CO)NC(=O)[C@H](C)NC(=O)[C@H](CSSC[C@@H](C(=O)N[C@@H](CC(C)C)C(=O)O)NC(=O)[C@H](CCC(N)=O)NC(=O)[C@H](CO)NC(=O)[C@H](Cc3ccc(O)cc3)NC(=O)[C@H](Cc3ccc(O)cc3)NC(=O)[C@@H]3CCCN3C(=O)[C@H](CC(N)=O)NC(=O)[C@H](CC(C)C)NC(=O)[C@H](C(C)C)NC(=O)[C@H](CCC(N)=O)NC2=O)NC(=O)[C@H](C(C)C)NC(=O)[C@H]([C@@H](C)O)NC(=O)[C@@H]2CCCN2C(=O)CNC(=O)[C@H](CO)NC(=O)[C@H](Cc2ccc(O)cc2)NC(=O)CNC1=O` [CBM variant 5] (H-AQS(αMan)HYGQCGGIGYSGPTVCASGTTCQVLNPYYSQCL-OH; disulfide 8-25, 19-35), the “Change in Half-Life” value is 34.8 min and the half-life is 44.4 ± 7.2 min. Regarding `CC[C@H](C)[C@@H]1NC(=O)CNC(=O)CNC(=O)[C@@H](NC(=O)[C@H](CCC(N)=O)NC(=O)CNC(=O)[C@H](Cc2ccc(O)cc2)NC(=O)[C@H](Cc2c[nH]cn2)NC(=O)[C@H](CO)NC(=O)[C@H](C)NC(=O)[C@@H](N)[C@@H](C)O)CSSC[C@@H]2NC(=O)[C@H]([C@@H](C)O)NC(=O)[C@H]([C@@H](C)O)NC(=O)CNC(=O)[C@H](CO)NC(=O)[C@H](C)NC(=O)[C@H](CSSC[C@@H](C(=O)N[C@@H](CC(C)C)C(=O)O)NC(=O)[C@H](CCC(N)=O)NC(=O)[C@H](CO)NC(=O)[C@H](Cc3ccc(O)cc3)NC(=O)[C@H](Cc3ccc(O)cc3)NC(=O)[C@@H]3CCCN3C(=O)[C@H](CC(N)=O)NC(=O)[C@H](CC(C)C)NC(=O)[C@H](C(C)C)NC(=O)[C@H](CCC(N)=O)NC2=O)NC(=O)[C@H](C(C)C)NC(=O)[C@H]([C@@H](C)O)NC(=O)[C@@H]2CCCN2C(=O)CNC(=O)[C@H](CO)NC(=O)[C@H](Cc2ccc(O)cc2)NC(=O)CNC1=O` [CBM variant 6] (H-TASHYGQCGGIGYSGPTVCASGTTCQVLNPYYSQCL-OH; disulfide 8-25, 19-35), the half-life was 9.6 ± 2.4 min. Take `CC[C@H](C)[C@@H]1NC(=O)CNC(=O)CNC(=O)[C@@H](NC(=O)[C@H](CCC(N)=O)NC(=O)CNC(=O)[C@H](Cc2ccc(O)cc2)NC(=O)[C@H](Cc2c[nH]cn2)NC(=O)[C@H](CO[C@H]2O[C@H](CO)[C@@H](O)[C@H](O)[C@@H]2O)NC(=O)[C@H](C)NC(=O)[C@@H](N)[C@@H](C)O)CSSC[C@@H]2NC(=O)[C@H]([C@@H](C)O)NC(=O)[C@H]([C@@H](C)O)NC(=O)CNC(=O)[C@H](CO)NC(=O)[C@H](C)NC(=O)[C@H](CSSC[C@@H](C(=O)N[C@@H](CC(C)C)C(=O)O)NC(=O)[C@H](CCC(N)=O)NC(=O)[C@H](CO)NC(=O)[C@H](Cc3ccc(O)cc3)NC(=O)[C@H](Cc3ccc(O)cc3)NC(=O)[C@@H]3CCCN3C(=O)[C@H](CC(N)=O)NC(=O)[C@H](CC(C)C)NC(=O)[C@H](C(C)C)NC(=O)[C@H](CCC(N)=O)NC2=O)NC(=O)[C@H](C(C)C)NC(=O)[C@H]([C@@H](C)O)NC(=O)[C@@H]2CCCN2C(=O)CNC(=O)[C@H](CO)NC(=O)[C@H](Cc2ccc(O)cc2)NC(=O)CNC1=O` [CBM variant 7] (H-TAS(αMan)HYGQCGGIGYSGPTVCASGTTCQVLNPYYSQCL-OH; disulfide 8-25, 19-35): the “Change in Half-Life” value stood at 6.6 min and the half-life is 16.2 ± 3 min.

In turn, `CC[C@H](C)[C@@H]1NC(=O)CNC(=O)CNC(=O)[C@@H](NC(=O)[C@H](CCC(N)=O)NC(=O)CNC(=O)[C@H](Cc2ccc(O)cc2)NC(=O)[C@H](C)NC(=O)[C@H](CO)NC(=O)[C@H](CCC(N)=O)NC(=O)[C@@H](N)[C@@H](C)O)CSSC[C@@H]2NC(=O)[C@H]([C@@H](C)O)NC(=O)[C@H]([C@@H](C)O)NC(=O)CNC(=O)[C@H](CO)NC(=O)[C@H](C)NC(=O)[C@H](CSSC[C@@H](C(=O)N[C@@H](CC(C)C)C(=O)O)NC(=O)[C@H](CCC(N)=O)NC(=O)[C@H](CO)NC(=O)[C@H](Cc3ccc(O)cc3)NC(=O)[C@H](Cc3ccc(O)cc3)NC(=O)[C@@H]3CCCN3C(=O)[C@H](CC(N)=O)NC(=O)[C@H](CC(C)C)NC(=O)[C@H](C(C)C)NC(=O)[C@H](CCC(N)=O)NC2=O)NC(=O)[C@H](C(C)C)NC(=O)[C@H]([C@@H](C)O)NC(=O)[C@@H]2CCCN2C(=O)CNC(=O)[C@H](CO)NC(=O)[C@H](Cc2ccc(O)cc2)NC(=O)CNC1=O` [CBM variant 8] (H-TQSAYGQCGGIGYSGPTVCASGTTCQVLNPYYSQCL-OH; disulfide 8-25, 19-35) showed a half-life of 13.2 ± 3.6 min.
